Experiments:
sptA promoter (PsptA) = assay: PsptA-luxAB activity with xylose-induced intracellularly expressed peptides; assay type: cell-based, Streptococcus salivarius
Source text: (§1) To generate the two DNA libraries encoding randomized sequence of small peptides, we performed overlapping PCRs to graft fragments encompassing the follow features: (1) a 5′ recombination arm (for the ectopic tRNA^ser locus); (2) the xylR gene that codes for the xylose responsive regulator; (3) either Pxyl1 (library I) or Pxyl2 (library II) translationally-fused to a 12 codon long gene, for which the last 7 are randomized; (4) the spec gene; (5) a 3′ recombination arm (for the ectopic tRNA^ser locus). To obtain the randomized DNA stretch, we used a 78 nucleotide long primer degenerated on 21 contiguous positions. Next, we transformed these two libraries in strains containing the sptA promoter translationally-fused to the cat gene (chloramphenicol resistance) in which the associated spec gene was excised by the previously described cre-lox method. The initial background of these strains were either a comR-overexpressing (Pxyl1-comR) or a salivaricin-deprived (Δslv5) strain. We plated transformed cells on solid medium supplemented with xylose (either 0.1 or 1%), chloramphenicol ([…]) and spectinomycin ([…]) and grew overnight. We restreaked single colonies on fresh chloramphenicol and spectinomycin solid medium supplemented or not with xylose.
(§2) Overnight precultures were diluted at a final OD600 of 0.05. A volume of 300 μl of culture samples was incubated in the wells of a sterile covered white microplate with a transparent bottom (Greiner, Alphen a/d Rijn, The Netherlands) for 75 min at 37° C. and then supplemented with synthetic peptides (1 μM, except if otherwise stated) or DMSO, and xylose where required. Growth (OD600) and luciferase (Lux) activity (expressed in relative light units) was monitored at 10 min intervals during 24 h in a multi-wells plate reader (Hidex Sense, Hidex, Turku, Finland) as previously described (Fontaine et al., 2013).

[1] = test system: sptA promoter (PsptA), ScuR/SarF system; assay: Luciferase (luxAB) promoter activity of PsptA with exogenous synthetic peptides; assay type: cell-based, Streptococcus salivarius HSISS4; settings: for Maximal activity of PsptA exposed to sBI7 mutant peptides, low concentration: 0.001 μM (1 nM) peptide, FIG. 3C; for Maximal activity of PsptA exposed to sBI7 mutant peptides, high concentration: 1 μM peptide, FIG. 3E
Description: as §2

ScuR = assay: Mobility shift assay (EMSA) of promoter probes with purified ScuR and synthetic peptide; assay type: binding, Streptococcus salivarius; settings: ScuR 4 μM; peptide 2:2 dilutions from 20 μM; FIG. 10B
Description: All double-stranded DNA fragments (30 or 40 bp) were obtained from annealing of single-stranded Cy3-labelled (at 5′ end) and unlabeled oligonucleotides. Typically, a gel shift reaction (20 μl) was performed in a binding buffer (20 mM Tris-HCl pH 8.0, 150 mM NaCl, 1 mM EDTA, 1 mM DTT, 10% glycerol, 1 mg ml-1 BSA) and contained 150 ng labelled probe and […] StrepTag proteins. When necessary, […] of ComS peptides (unless otherwise stated) are added. The reaction is incubated at 37° C. for 10 min prior to loading of the samples on a native TBE 5% gel. The gel is next subjected to 80 V for approximately 1 h in TBE buffer. DNA complexes were detected by fluorescence on the Ettan DIGE Imager with bandpass excitation filters (nm): 540/25 (Cy3) or 635/30 (Cy5) and bandpass emission filters: 595/25 (Cy3) or 680/30 (Cy5) (GE Healthcare, Waukesha, WI).
The PCR-amplified scuR-StrepTag and gene sarF-StrepTag were cloned into the pBAD-comR-ST vector (see supplemental information). The ComR-StrepTag, ScuR-StrepTag and SarF-StrepTag recombinant proteins were overproduced in E. coli and purified as previously described (Fontaine et al., 2013) in standard native conditions on Strep-Tactin agarose beads (IBA).

[2] = test system: sptA promoter (PsptA) fused to cat, ScuR/SarF; assay: Randomized peptide screen (PsptA-cat, chloramphenicol resistance on xylose); assay type: cell-based, Streptococcus salivarius; settings: xylose 0.1 or 1%; PsptA-cat reporter
Source text: as §1

Candida species = settings: Shekh and Roy (2012); cited from earlier work
[3] = test system: bacteriocin gene promoters (salivaricin promoters); assay: Luciferase (luxAB) activity of bacteriocin gene (salivaricin) promoters; assay type: cell-based, Streptococcus salivarius HSISS4; settings: 1 μM; FIG. 7
Description: as §2

[4] = test system: fungal microbial organism; settings: literature; cited from earlier work
[5] = test system: pathogenic Gram-positive and Gram-negative bacteria; settings: Acuna et al. (2012); cited from earlier work

In the case of “MIAILPFWLILG [BI7, genome-encoded screen peptide]”, the “xylose-driven PsptA activity in comR or sarF deletion backgrounds” value (sptA promoter (PsptA); 0.1% xylose, FIG. 2D) is reported as “neither comR nor sarF deletion has a dramatic effect” and the “xylose-driven PsptA activity in scuR deletion background” value (sptA promoter (PsptA); 0.1% xylose, FIG. 2D) is reported as “annihilates both xylose induction and basal leaky expression”.

For “LAFWDSLG [Leu-Ala-Phe-Trp-Asp-Ser-Leu-Gly]”, the “induction of the sptA promoter in vivo” value ([1]; 1 μM, FIG. 10A) was “able to induce the sptA promoter in vivo” and the “ScuR binding to PsptA probe” value (ScuR) was “more intense”.

For “LAFWDSLGLLL [LAFWDSLG with a triple leucine extension at the C-terminus (precursor peptide)]”, the “induction of the sptA promoter in vivo” value ([1]; 1 μM, FIG. 10A) was “able to induce the sptA promoter in vivo”, the “PsptA induction of the longer peptide relative to the shorter one” value ([1]; 1 μM, induction magnitude comparable to sBI7, FIG. 10A) was “much more active at 1 μM concentration than the shorter one” and the “ScuR binding to PsptA probe” value (ScuR) was “requires extreme concentration”.

With “MIAILRPH [BM1, irrelevant genome-encoded peptide, negative control clone, reference compound]” the “growth on chloramphenicol with vs without xylose” value [2] was “xylose-independent growth” and the “potentiation of PsptA-luxAB promoter activity by xylose addition” value (sptA promoter (PsptA); xylose 0.1% or 1% vs mock, FIG. 2B) was “no effect”.

For “WLPPAGLLGRCGRWFRPWLLWLQ SGAQY KWLGNLFGLGPK (WLPPAGLLGRCGRWFRPWLLWLQSGAQYKWLGNLFGLGPK; Enterococcus faecalis peptide)”, the “neutralizing activity against Candida species” value (Candida species) is given as “neutralizing activity against Candida species”.

In the case of “sBI7^W→A: sBI7 variant, ultra-conserved tryptophan substituted by alanine (LPFALILG)”, the “Maximal activity of PsptA exposed to sBI7 mutant peptides, low concentration” value (“Maximal activity … low concentration” below) [1] is reported as “neither alanine (sBI7^W→A) nor phenylalanine (sBI7^W→F) variants sustains luciferase transcription” and the “Maximal activity of salivaricin (bacteriocin gene) promoters exposed to mutant peptides” value (“Maximal activity of salivaricin” below) [3] is reported as “total inefficacy”.

For botrycidin AJ1316, the antifungal activities [4] is given as “antifungal activities”.

For “sBI7^W→F: sBI7 variant, ultra-conserved tryptophan substituted by phenylalanine (LPFFLILG)”, the “Maximal activity … low concentration” value [1] was “neither alanine (sBI7^W→A) nor phenylalanine (sBI7^W→F) variants sustains luciferase transcription”, the “Maximal activity of PsptA exposed to sBI7 mutant peptides, high concentration” value [1] was “activate Pcat at a similar range than the WT sBI7 peptide” and the “Maximal activity of salivaricin” value [3] was “low to high activation disability”.

With “sBI7^G→A: sBI7 variant, C-terminal glycine substituted by alanine (LPFWLILA)” the “Maximal activity … low concentration” value [1] was “decreases the PsptA response”, the “Maximal activity of PsptA exposed to sBI7 mutant peptides, high concentration” value [1] was “activate Pcat at a similar range than the WT sBI7 peptide” and the “Maximal activity of salivaricin” value [3] was “low to high activation disability”.

B1: Ent35-MccV: hybrid bacteriocin: N-terminal glycine, Enterocin CRL35, a linker comprising three glycines, and a C-terminal Microcin V (protein)
chain: GKYYGNGVSCNKKGCSVDWGRAIGIIGNNSAANLATGGAAGWKSGGGASGRDIAMAIGTLSGQFVAGGIGAAAGGVAGGAIYDYASTHKPNPAMSPSGLGGTIKQKPEGIPSEAWNYAAGRLCNWSPNNLSDVCL
modifications: Hybrid bacteriocin Ent35-MccV
notes: hybrid bacteriocin: N-terminal glycine, Enterocin CRL35, a linker comprising three glycines, and a C-terminal Microcin V
In the case of B1, the antimicrobial activity [5] is given as “displays antimicrobial activity against pathogenic Gram-positive and Gram-negative bacteria”.

— patent publication US12234299B2, “Peptides for inducing bacteriocin synthesis and methods to identify and/or select and/or optimize the same” (SYNGULON S.A., priority 2018, dated 2025)
